According to patent publication US20180311236A1 (AB SCIENCE, priority 2015, published 2018):

What was measured:
[1] = test system: human cord blood mast cells; conditions: cited from earlier work
[2] = test system: Tyrosine Hydroxylase in total brain protein extract; experiment: MPTP mouse model of Parkinson's disease: tyrosine hydroxylase ELISA assay
Protocol: (§1) Each treated group included 10 animals for the MPTP intoxicated groups and 5 animals for the controls. The loss of tyrosine hydroxylase expression, indicative of dopaminergic neuron destruction, was analyzed by western blotting, immunohistochemistry and ELISA assay.
The mice were treated orally by gavage with 0.1 ml corresponding to 25 mg/kg in a 24 g mouse.
(§2) C57BL/6J mice are intoxicated with MPTP using an acute protocol, as described hereafter. On the day of MPTP exposure each mouse received 4 injections of MPTP solution (20 mg/kg) at 2-hour intervals for 1 day.
(§3) Dosing was done 2 times per day at 6-hour interval starting day 7 before intoxication and stopping 7 days after MPTP administration. […] Before brain extraction mice were perfused with 0.9% NaCl 2.6 mM EDTA solution.
(§4) The treatment started 7 days before MPTP administration and continued 7 days after.
(§5) After mouse sacrifice and dissection, the left brain was submerged in 4% paraformaldehyde in PBS (phosphate buffered saline) solution for paraffin embedding and then cut into 5 μM-thick coronal section. And the right brain was immediately frozen in nitrogen liquid for protein analysis. The proteins were extracted with the homogenizer ultra turrax IKA-T10 basic system and quantified using the BCA test (bicinchoninic acid assay).
The microliter plate wells were coated overnight at 4° C. with 5μg of total brain protein extract. […]

[3] = test system: Ba/F3 cells expressing PDGFR-α; conditions: read-out: IC50, PDGF-BB-stimulated proliferation and PDGFR-α tyrosine phosphorylation; cited from earlier work
[4] = test system: tyrosine hydroxylase in coronal brain sections; experiment: MPTP mouse model of Parkinson's disease: tyrosine hydroxylase immunohistochemistry; format: in vivo; conditions: immunohistochemistry on 5 μm-thick coronal sections; MPTP + masitinib 2 × 5 mg/kg
[5] = test system: Monoamine oxidase activity from total brain protein extract; experiment: MPTP mouse model: monoamine oxidase fluorometric assay; conditions: MPTP + masitinib 2 × 5 mg/kg, control = 100, MPTP = 108
Protocol: as §1
This stock solution was defrosted before treatment of mice. The mice were treated orally by gavage with 0.1 ml corresponding to 25 mg/kg in a 24 g mouse.
as §2, §3, §4, §5

[6] = test system: C57BL/6 mice; experiment: Mortality after MPTP intoxication; format: in vivo, mouse; conditions: 24 hours after treatment by the MPTP (4 injections of 20 mg/kg at 2-hour intervals)
Text: Brain samples were collected after mice anesthesia and sacrifice.

[7] = test system: Tyrosine Hydroxylase in total brain protein extract; experiment: MPTP mouse model of Parkinson's disease: tyrosine hydroxylase western blotting; conditions: MPTP alone (4 × 20 mg/kg, solvent-treated), control = 100
Protocol: Each treated group included 10 animals for the MPTP intoxicated groups and 5 animals for the controls.
as §2
Before brain extraction mice were perfused with 0.9% NaCl 2.6 mM EDTA solution.
And the right brain was immediately frozen in nitrogen liquid for protein analysis. The proteins were extracted with the homogenizer ultra turrax IKA-T10 basic system and quantified using the BCA test (bicinchoninic acid assay).
30 μg of total brain protein were used for western blot analysis using 1:1000 dilution anti-tyrosine hydroxylase rabbit polyclonal antibody (Cat #AB152, Millipore) followed by 1:10000 horseradish peroxidase-conjugated anti-rabbit antibody (Jakson ImmunoResearch). Antibody to actin (Cat #A5316, Sigma Aldrich) were used as loading control followed by 1:10000 horseradish peroxidase-conjugated anti-mouse antibody (Jakson ImmunoResearch). Immunoreactive bands were detected using enhanced chemiluminescent reagents (GE Healthcare, Amersham, UK). Signal intensity was calculated using the Image J software.

Row | Structure (SMILES) | FcϵRI-mediated degranulation [1] | Mean expression of tyrosine hydroxylase ([2]; MPTP + masitinib 2 × 5 mg/kg per os, day -7 to day 7, control = 0.275, MPTP = 0.175, 5 mg/kg) | Mean expression of tyrosine hydroxylase ([2]; masitinib alone 2 × 30 mg/kg per os, no MPTP, control = 0.275, 30 mg/kg) | IC50 [3] | in situ staining of tyrosine hydroxylase [4] | Monoamine oxidase fluorometric assay [5] | mortality [6] | Relative average expression of tyrosine hydroxylase [7]
1 | Cc1ccc(NC(=O)c2ccc(CN3CCN(C)CC3)cc2)cc1Nc1nc(-c2cccnc2)cs1 [Masitinib, 4-(4-methylpiperazin-l-ylmethyl)-N-[4-methyl-3-(4-pyridin-3ylthiazol-2-ylamino)phenyl]benzamide] | inhibition | significant attenuation | did not modify significantly | 300 ± 5 nM | positive effect | maintained |  | 
2 | CN1CC=C(c2ccccc2)CC1 [MPTP, 1-methyl-4-phenyl-1,2,3,6-tetrahydropyridine] |  |  |  |  |  |  | No mortality | 77
